The supplement of paper PMC10307832

Compound: CN(C)CC1=CC(=CC=C1)N=C(C2=CC=CC=C2)C3=C(NC4=C3C=CC(=C4)C(=O)N(C)C)O + CC(C)C[C@H](NC(=O)[C@H](Cc1ccccc1)NC(=O)c1cnccn1)B(O)O [Bortezomib] (partner 0.002 µM)
Test: relative viability (nuclei count vs DMSO), 5 days (fraction); higher = more cells survive
Procedure, shortened: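 Dosing by pin tool came one day after lung cancer cell lines were seeded in 1536-well plates, using either one drug or a fixed anchor-drug dose plus five library-drug doses (not always all listed) in √10 steps. After 5 days, nuclei were counted on 4× images. Relative viability is treated-well nuclei count divided by vehicle-well nuclei count, and values are medians of duplicate plates.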

Cell Line | relative viability (first compound 0.08 µM) | relative viability (first compound 0.253 µM) | relative viability (first compound 0.8 µM) | relative viability (first compound 2.53 µM) | relative viability (first compound 8 µM)
HARA | 1.06 | 1.1 | 1.06 | 1.02 | 1.05
H3255 | 0.779 | 0.893 | 0.752 | 0.822 | 0.94
SK-LU-1 | 0.94 | 1.17 | 1.16 | 1.13 | 1.01
EMC-BAC-2 | 1.09 | 1.08 | 1.09 | 1.05 | 1.01
NCI-H2405 | 0.976 | 1.02 | 0.976 | 0.954 | 0.951
EPLC-272H | 0.949 | 1.16 | 0.903 | 1.02 | 1.15
LXF-289 | 1 | 0.888 | 0.993 | 0.927 | 0.939
NCI-H1299 | 1.02 | 1.04 | 1.01 | 0.996 | 0.912
NCI-H596 | 1.05 | 1.17 | 1.07 | 1.11 | 1.26
201T | 1.13 | 1.15 | 1.08 | 1.06 | 0.994
NCI-H322M | 1.25 | 1.14 | 1.19 | 1.16 | 1.26
NCI-H1755 | 0.888 | 0.932 | 0.93 | 0.817 | 0.972
NCI-H1915 | 0.976 | 1.02 | 0.985 | 0.923 | 0.956
NCI-H2228 | 1.09 | 1.15 | 1.11 | 0.779 | 0.94
NCI-H2347 | 0.828 | 1.22 | 0.83 | 1.17 | 1.12
PC-14 | 0.989 | 0.839 | 0.89 | 0.767 | 1.06
NCI-H727 | 0.872 | 0.764 | 0.786 | 0.739 | 0.764
NCI-H647 | 1.02 | 1.01 | 1.01 | 0.846 | 0.776
EKVX | 1 | 1 | 1.01 | 0.962 | 1.06
NCI-H838 | 0.792 | 0.8 | 0.916 | 0.757 | 0.73
NCI-H1437 | 0.462 | 0.63 | 0.615 | 0.482 | 0.56
ChaGo-K-1 | 0.986 | 1.1 | 1.03 | – | 1.12
NCI-H2023 | 1.3 | 1.05 | 0.901 | 0.647 | 0.731

Cell Line | relative viability (first compound 0.08 µM) | relative viability (first compound 0.253 µM) | relative viability (first compound 0.8 µM) | relative viability (first compound 2.53 µM) | relative viability (first compound 8 µM)
PC-3 [JPC-3] | 0.856 | 0.826 | 0.759 | 0.886 | 0.866
NCI-H1650 | 0.181 | 0.22 | 0.231 | 0.202 | 0.222
LOU-NH91 | 0.493 | 0.472 | 0.447 | 0.533 | 0.472
NCI-H520 | 0.593 | 0.455 | 0.651 | 0.658 | 0.552
UMC-11 | 0.744 | 0.645 | 0.725 | 0.577 | 0.698
BEN | 0.951 | 0.679 | 0.794 | 0.876 | 0.717
LCLC-97TM1 | 0.528 | 0.942 | 0.504 | 0.605 | 1.35
Calu-6 | 1.02 | 1.06 | 1.05 | 1.13 | 1.06
NCI-H1666 | 0.865 | 0.945 | 0.989 | 0.976 | 0.816
SW 1573 | 1.04 | 1.16 | 1.06 | 0.946 | 0.94
NCI-H1993 | 1.04 | 1.11 | 0.748 | 1.22 | 1.36
NCI-H650 | 0.695 | 0.993 | 0.767 | 0.717 | 0.661
LCLC-103H | 1.14 | 1.09 | 0.976 | 0.91 | 0.979
NCI-H2085 | 1.07 | 0.953 | 0.993 | 1.01 | 1.07
NCI-H23 | 1.08 | 1.02 | 1.18 | 0.951 | 0.833
NCI-H1355 | 1.24 | 1.26 | 1.11 | 1.28 | 1.08
NCI-H1651 | 0.959 | 0.984 | 0.957 | 0.794 | 0.932
HCC-78 | 0.596 | 0.458 | 0.468 | 0.512 | 0.405
RERF-LC-KJ | 1.36 | 1.12 | 1.07 | 1.01 | 1.02
LC-2-ad | 1.08 | 1.1 | 1.03 | 0.979 | 0.995
NCI-H1734 | 0.954 | 0.868 | 0.92 | 0.815 | 0.78
NCI-H1563 | 0.868 | 0.921 | 0.729 | 0.755 | 0.737
HOP-62 | 0.875 | 1.25 | 0.746 | 0.801 | 0.72

Cell Line | relative viability (first compound 0.08 µM) | relative viability (first compound 0.253 µM) | relative viability (first compound 0.8 µM) | relative viability (first compound 2.53 µM) | relative viability (first compound 8 µM)
HCC-15 | 0.984 | 0.956 | 1.08 | 1.03 | 1.12
HCC-44 | 0.913 | 0.872 | 0.875 | 0.803 | 0.948
NCI-H460 | 1.22 | 1.05 | 1.1 | 0.974 | 1.06
NCI-H3122 | 0.984 | 0.99 | 1.06 | 0.959 | 0.98
NCI-H2009 | 1.17 | 1.01 | 1.21 | 0.919 | 0.839
IA-LM | – | 0.876 | 1.12 | 1.06 | 1.11
ABC-1 | 0.324 | 0.312 | 0.264 | 0.274 | 0.316
A-427 | 0.986 | 0.941 | 1.02 | 0.935 | 0.98
LU99A | 1.13 | 1.21 | 1.15 | 1.09 | 0.911
HCC-366 | 0.949 | 1.01 | 1.03 | 0.906 | 0.9
NCI-H661 | 0.897 | 0.707 | 0.918 | 0.873 | 0.607
CAL-12T | – | 1.02 | 1.03 | – | 1.08
NCI-H1703 | 0.311 | 0.307 | 0.377 | 0.29 | 0.207
NCI-H1975 | 0.444 | 0.381 | 0.319 | 0.326 | 0.381
NCI-H2087 | 0.656 | 0.785 | 0.986 | 0.816 | 1.03
COR-L23 | 0.99 | 1.06 | 0.991 | 0.958 | 0.904
NCI-H1792 | 0.641 | 0.911 | 0.906 | 0.933 | 0.911
NCI-H441 | 0.572 | 0.449 | 0.538 | 0.511 | 0.331
COR-L 105 | 0.767 | 0.889 | 0.586 | 0.761 | 0.753
HCC-827 | 1.08 | 1.03 | 1.08 | 1.08 | 1.05
NCI-H2126 | 1.14 | 1.08 | 1.13 | 1.07 | 1.1
